Reference: patent US20180319753A1, “MICROBIOCIDAL OXADIAZOLE DERIVATIVES” (SYNGENTA PARTICIPATIONS AG, priority 2015, published 2018)

Legend:
[1] = test system: Puccinia recondita f. Sp. Tritici; assay: Puccinia recondita f. sp. tritici / wheat / leaf disc preventative (brown rust); type: in vivo; conditions: foliar, 200 ppm in the applied formulation, wheat leaf segments cv. Kanzler, inoculated 1 day after application, assessed 7 to 9 days after application, read-out: disease control compared to untreated control leaf disks
Experimental: Leaf disks or leaf segments of various plant species are cut from plants grown in a greenhouse. The cut leaf disks or segments are placed in multiwell plates (24-well format) onto water agar. The leaf disks are sprayed with a test solution before (preventative) or after (curative) inoculation. Compounds to be tested are prepared as DMSO solutions (max. 10 mg/ml) which are diluted to the appropriate concentration with 0.025% Tween20 just before spraying. The inoculated leaf disks or segments are incubated under defined conditions (temperature, relative humidity, light, etc.) according to the respective test system. A single evaluation of disease level is carried out 3 to 14 days after inoculation, depending on the pathosystem. Percent disease control relative to the untreated check leaf disks or segments is then calculated. Wheat leaf segments cv. Kanzler were placed on agar in multiwell plates (24-well format) and sprayed with the formulated test compound diluted in water. The leaf disks were inoculated with a spore suspension of the fungus 1 day after application. The inoculated leaf segments were incubated at 19° C. and 75% relative humidity (rh) under a light regime of 12 hours light/12 hours darkness in a climate cabinet and the activity of a compound was assessed as percent disease control compared to untreated when an appropriate level of disease damage appears in untreated check leaf segments (7 to 9 days after application). The following compounds at 200 ppm in the applied formulation give at least 80% disease control in this test when compared to untreated control leaf disks under the same conditions, which show extensive disease development.

Phakopsora pachyrhizi = Phakopsora pachyrhizi / soybean / leaf disc preventative (Asian soybean rust); type: in vivo; conditions: foliar, 200 ppm in the applied formulation, soybean leaf disks, inoculated one day after application, assessed 12 to 14 days after application, read-out: disease control compared to untreated control leaf disks
Experimental: Leaf disks or leaf segments of various plant species are cut from plants grown in a greenhouse. The cut leaf disks or segments are placed in multiwell plates (24-well format) onto water agar. The leaf disks are sprayed with a test solution before (preventative) or after (curative) inoculation. Compounds to be tested are prepared as DMSO solutions (max. 10 mg/ml) which are diluted to the appropriate concentration with 0.025% Tween20 just before spraying. The inoculated leaf disks or segments are incubated under defined conditions (temperature, relative humidity, light, etc.) according to the respective test system. A single evaluation of disease level is carried out 3 to 14 days after inoculation, depending on the pathosystem. Percent disease control relative to the untreated check leaf disks or segments is then calculated.
Soybean leaf disks are placed on water agar in multiwell plates (24-well format) and sprayed with the formulated test compound diluted in water. One day after application leaf discs are inoculated by spraying a spore suspension on the lower leaf surface. After an incubation period in a climate cabinet of 24-36 hours in darkness at 20° C. and 75% rh leaf disc are kept at 20° C. with 12 h light/day and 75% rh. The activity of a compound is assessed as percent disease control compared to untreated when an appropriate level of disease damage appears in untreated check leaf disks (12 to 14 days after application).
The following compounds at 200 ppm in the applied formulation give at least 80% disease control in this test when compared to untreated control leaf disks under the same conditions, which show extensive disease development.

[2] = test system: Glomerella lagenarium (Colletotrichum lagenarium); assay: Glomerella lagenarium (Colletotrichum lagenarium) liquid culture / cucumber / preventative (anthracnose); type: cell-based; conditions: Colletotrichum orbiculare; 20 ppm in the applied formulation; liquid culture in PDB, 24° C.; 3 to 4 days after application; read-out: disease control compared to untreated control (inhibition of growth measured photometrically)
Experimental: Mycelia fragments or conidia suspensions of a fungus prepared either freshly from liquid cultures of the fungus or from cryogenic storage, are directly mixed into nutrient broth. DMSO solutions of the test compound (max. 10 mg/ml) are diluted with 0.025% Tween20 by a factor of 50 and 10 μl of this solution is pipetted into a microtiter plate (96-well format). The nutrient broth containing the fungal spores/mycelia fragments is then added to give an end concentration of the tested compound. The test plates are incubated in the dark at 24° C. and 96% relative humidity. The inhibition of fungal growth is determined photometrically after 2 to 7 days, depending on the pathosystem, and percent antifungal activity relative to the untreated check is calculated.
Conidia of the fungus from cryogenic storage are directly mixed into nutrient broth (PDB—potato dextrose broth). After placing a (DMSO) solution of test compound into a microtiter plate (96-well format), the nutrient broth containing the fungal spores is added. The test plates are incubated at 24° C. and the inhibition of growth is measured photometrically 3 to 4 days after application.
The following compounds at 20 ppm in the applied formulation give at least 80% disease control in this test when compared to untreated control under the same conditions, which show extensive disease development.

| Compound | pest or weed control at 200 ppm [1] [%] | pest or weed control at 200 ppm (Phakopsora pachyrhizi) [%] | inhibition at 20 ppm [2] [%] | melting point [°C] |
| --- | --- | --- | --- | --- |
| Cc1cc(-c2noc(C(F)(F)F)n2)ccc1[S+]([O-])c1ccccc1 (stereo not shown) [Compound 2.11, 3-[4-(benzenesulfinyl)-3-methyl-phenyl]-5-(trifluoromethyl)-1,2,4-oxadiazole] | ≥ 80 | ≥ 80 | ≥ 80 |  |
| [O-][S+](Cc1ccc(-c2noc(C(F)(F)F)n2)cc1)c1ccccc1F (stereo not shown) [Compound 2.17, 3-[4-[(2-fluorophenyl)sulfinylmethyl]phenyl]-5-(trifluoromethyl)-1,2,4-oxadiazole] |  | ≥ 80 | ≥ 80 | 108 to 118 |
| Cc1ccc(C)c([S+]([O-])c2ccc(-c3noc(C(F)(F)F)n3)cc2)c1 (stereo not shown) [Compound 2.7, 3-[4-(2,5-dimethylphenyl)sulfinyl-phenyl]-5-(trifluoromethyl)-1,2,4-oxadiazole] | ≥ 80 | ≥ 80 | ≥ 80 | 103 to 109 |
| O=S(=O)(c1ccc(-c2noc(C(F)(F)F)n2)cc1)c1ccccc1F [Compound 3.12, 3-[4-(2-fluorophenyl)sulfonylphenyl]-5-(trifluoromethyl)-1,2,4-oxadiazole] |  | ≥ 80 | ≥ 80 | 140 to 147 |
| O=S(=O)(c1ccc(-c2noc(C(F)(F)F)n2)cn1)c1ccccc1F [Compound 3.19, 3-[6-(2-fluorophenyl)sulfonyl-3-pyridyl]-5-(trifluoromethyl)-1,2,4-oxadiazole] | ≥ 80 |  | ≥ 80 | 145 to 151 |
| Cc1ccccc1[S+]([O-])c1ccc(-c2noc(C(F)(F)F)n2)cn1 (stereo not shown) [Compound 2.25, 3-[6-(o-tolylsulfinyl)-3-pyridyl]-5-(trifluoromethyl)-1,2,4-oxadiazole] | ≥ 80 | ≥ 80 | ≥ 80 | 103 to 105 |
| O=S(=O)(c1ccc(F)cc1)c1ccc(-c2noc(C(F)(F)F)n2)cc1 [Compound 3.9, 3-[4-(4-fluorophenyl)sulfonylphenyl]-5-(trifluoromethyl)-1,2,4-oxadiazole] | ≥ 80 | ≥ 80 |  | 144 to 149 |
| O=S(=O)(Cc1ccc(-c2noc(C(F)(F)F)n2)cn1)c1ccccc1 [Compound 3.21, 3-[6-(benzenesulfonylmethyl)-3-pyridyl]-5-(trifluoromethyl)-1,2,4-oxadiazole] |  | ≥ 80 | ≥ 80 | 160 to 166 |
| [O-][S+](c1ccc(-c2noc(C(F)(F)F)n2)cc1)c1ccccc1F (stereo not shown) [Compound 2.18, 3-[4-(2-fluorophenyl)sulfinylphenyl]-5-(trifluoromethyl)-1,2,4-oxadiazole] | ≥ 80 | ≥ 80 | ≥ 80 | 116 to 121 |
| COc1ccccc1S(=O)(=O)c1ccc(-c2noc(C(F)(F)F)n2)cc1 [Compound 3.10, 3-[4-(2-methoxyphenyl)sulfonyl-phenyl]-5-(trifluoromethyl)-1,2,4-oxadiazole] | ≥ 80 |  |  | 119 to 123 |
| O=S(=O)(c1ccc(-c2noc(C(F)(F)F)n2)cc1)c1cccc(F)c1 [Compound 3.14, 3-[4-(3-fluorophenyl)sulfonylphenyl]-5-(trifluoromethyl)-1,2,4-oxadiazole] | ≥ 80 | ≥ 80 | ≥ 80 | 136 to 143 |
| Fc1cc(-c2noc(C(F)(F)F)n2)ccc1CSc1ccccc1 [Compound 1.24, 3-[3-fluoro-4-(phenylsulfanylmethyl)phenyl]-5-(trifluoromethyl)-1,2,4-oxadiazole] |  | ≥ 80 | ≥ 80 | 50 to 55 |
| [O-][S+](Cc1c(F)cccc1F)c1ccc(-c2noc(C(F)(F)F)n2)cc1 (stereo not shown) [Compound 2.9, 3-[4-[(2,6-difluorophenyl)methyl-sulfinyl]phenyl]-5-(trifluoromethyl)-1,2,4-oxadiazole] |  | ≥ 80 | ≥ 80 | 126 to 130 |
| COc1ccc(S(=O)(=O)c2ccc(-c3noc(C(F)(F)F)n3)cc2)cc1 [Compound 3.2, 3-[4-(4-methoxyphenyl)sulfonylphenyl]-5-(trifluoromethyl)-1,2,4-oxadiazole] | ≥ 80 | ≥ 80 | ≥ 80 | 108 to 116 |
| Fc1cc(CSc2ccccc2)ccc1-c1noc(C(F)(F)F)n1 [Compound 1.25, 3-[2-fluoro-4-(phenylsulfanylmethyl)phenyl]-5-(trifluoromethyl)-1,2,4-oxadiazole] |  | ≥ 80 | ≥ 80 | 48 to 54 |
| [O-][S+](c1ccc(-c2noc(C(F)(F)F)n2)cc1)c1ccc(C(F)(F)F)cc1 (stereo not shown) [Compound 2.14, 5-(trifluoromethyl)-3-[4-[4-(trifluoromethyl)phenyl]sulfinylphenyl]-1,2,4-oxadiazole] | ≥ 80 |  | ≥ 80 | 94 to 100 |
| [O-][S+](Cc1ccc(-c2noc(C(F)(F)F)n2)cc1F)c1ccccc1 (stereo not shown) [Compound 2.29, 3-[4-(benzenesulfinylmethyl)-3-fluoro-phenyl]-5-(trifluoromethyl)-1,2,4-oxadiazole] |  | ≥ 80 | ≥ 80 | 116 to 120 |
| Cc1ccccc1S(=O)(=O)c1ccc(-c2noc(C(F)(F)F)n2)cc1 [Compound 3.17, 3-[4-(o-tolylsulfonyl)phenyl]-5-(trifluoromethyl)-1,2,4-oxadiazole] | ≥ 80 |  | ≥ 80 | 109 to 115 |
| Fc1ccc(Sc2ccc(-c3noc(C(F)(F)F)n3)cc2)c(F)c1 [Compound 1.10, 3-[4-(2,4-difluorophenyl)sulfanylphenyl]-5-(trifluoromethyl)-1,2,4-oxadiazole] |  | ≥ 80 | ≥ 80 | 72 to 80 |
| Cc1ccccc1S(=O)(=O)c1ccc(-c2noc(C(F)(F)F)n2)cn1 [Compound 3.18, 3-[6-(o-tolylsulfonyl)-3-pyridyl]-5-(trifluoromethyl)-1,2,4-oxadiazole] | ≥ 80 |  | ≥ 80 | 66 to 68 |
| [O-][S+](c1ccc(-c2noc(C(F)(F)F)n2)cc1)c1c(F)cccc1F (stereo not shown) [Compound 2.16, 3-[4-(2,6-difluorophenyl)sulfinyl-phenyl]-5-(trifluoromethyl)-1,2,4-oxadiazole] | ≥ 80 | ≥ 80 |  | 148 to 155 |
